How the values were obtained:
[1] = system: Uveal melanoma cell lines, 92-1 or MP41; experiment: Comparison with clinical PKC and MEK inhibitors in uveal melanoma cell lines (Cell-titer glo, 3 days); type: cell-based; details: FIG. 2, vs LXS196 and Selumetinib
[2] = system: uveal melanoma and hematologic cancer cell lines; details: FIG. 1; 0 to 10 micromolar; uveal melanoma and hematologic cancer cell lines vs other tested cell lines
BRM = BRM (Homo sapiens, UniProt P51531); experiment: ATPase catalytic activity of BRM (ADP-Glo in vitro biochemical assay); details: for BRM Max % Inhibition: Table 6
BRM, sequence (P51531 whole entry): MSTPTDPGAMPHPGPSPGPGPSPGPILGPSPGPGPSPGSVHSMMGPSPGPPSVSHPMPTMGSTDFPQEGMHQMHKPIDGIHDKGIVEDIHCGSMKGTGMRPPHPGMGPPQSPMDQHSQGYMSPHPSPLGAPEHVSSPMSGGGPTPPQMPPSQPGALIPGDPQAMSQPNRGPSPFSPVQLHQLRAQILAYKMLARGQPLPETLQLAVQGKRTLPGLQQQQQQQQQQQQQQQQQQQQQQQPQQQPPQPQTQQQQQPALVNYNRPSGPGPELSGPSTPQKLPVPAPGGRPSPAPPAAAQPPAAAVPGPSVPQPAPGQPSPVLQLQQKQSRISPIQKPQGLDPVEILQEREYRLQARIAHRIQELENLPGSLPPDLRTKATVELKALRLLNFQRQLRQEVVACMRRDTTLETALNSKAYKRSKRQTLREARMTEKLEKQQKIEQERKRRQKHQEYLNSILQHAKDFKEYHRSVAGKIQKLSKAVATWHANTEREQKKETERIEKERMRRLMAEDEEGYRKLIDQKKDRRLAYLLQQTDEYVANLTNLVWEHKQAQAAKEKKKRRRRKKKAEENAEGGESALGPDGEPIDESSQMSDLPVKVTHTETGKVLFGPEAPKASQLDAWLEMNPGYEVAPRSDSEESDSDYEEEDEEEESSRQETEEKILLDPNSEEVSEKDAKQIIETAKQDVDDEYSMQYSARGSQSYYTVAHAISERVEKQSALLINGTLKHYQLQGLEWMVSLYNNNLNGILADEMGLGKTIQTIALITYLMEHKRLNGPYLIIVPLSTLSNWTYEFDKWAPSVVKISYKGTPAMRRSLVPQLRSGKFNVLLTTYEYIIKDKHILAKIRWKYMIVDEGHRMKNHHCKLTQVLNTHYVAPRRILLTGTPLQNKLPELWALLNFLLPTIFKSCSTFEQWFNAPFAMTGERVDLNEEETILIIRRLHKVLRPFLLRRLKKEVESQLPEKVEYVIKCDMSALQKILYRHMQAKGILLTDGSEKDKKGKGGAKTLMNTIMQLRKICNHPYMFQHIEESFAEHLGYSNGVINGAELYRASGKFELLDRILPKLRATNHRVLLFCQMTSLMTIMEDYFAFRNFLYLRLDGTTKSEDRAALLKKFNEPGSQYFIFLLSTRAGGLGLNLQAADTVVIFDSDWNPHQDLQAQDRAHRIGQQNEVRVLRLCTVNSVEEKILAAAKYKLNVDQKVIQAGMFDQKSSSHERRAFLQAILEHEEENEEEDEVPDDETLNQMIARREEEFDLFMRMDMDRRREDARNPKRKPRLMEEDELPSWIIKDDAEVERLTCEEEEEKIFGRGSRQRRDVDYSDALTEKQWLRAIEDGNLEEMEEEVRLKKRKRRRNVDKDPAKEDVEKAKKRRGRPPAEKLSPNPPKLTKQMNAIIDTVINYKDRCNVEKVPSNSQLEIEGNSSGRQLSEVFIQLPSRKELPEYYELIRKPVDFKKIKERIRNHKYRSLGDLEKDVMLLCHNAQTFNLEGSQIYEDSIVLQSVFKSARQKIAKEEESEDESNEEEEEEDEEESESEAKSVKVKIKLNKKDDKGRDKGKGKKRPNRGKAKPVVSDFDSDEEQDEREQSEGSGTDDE

BRG-1 = BRG-1 (Homo sapiens, UniProt P51532); experiment: ATPase catalytic activity of BRG-1 (ADP-Glo in vitro biochemical assay); details: for BRG1 Max % Inhibition: Table 6
BRG-1, sequence (P51532 whole entry): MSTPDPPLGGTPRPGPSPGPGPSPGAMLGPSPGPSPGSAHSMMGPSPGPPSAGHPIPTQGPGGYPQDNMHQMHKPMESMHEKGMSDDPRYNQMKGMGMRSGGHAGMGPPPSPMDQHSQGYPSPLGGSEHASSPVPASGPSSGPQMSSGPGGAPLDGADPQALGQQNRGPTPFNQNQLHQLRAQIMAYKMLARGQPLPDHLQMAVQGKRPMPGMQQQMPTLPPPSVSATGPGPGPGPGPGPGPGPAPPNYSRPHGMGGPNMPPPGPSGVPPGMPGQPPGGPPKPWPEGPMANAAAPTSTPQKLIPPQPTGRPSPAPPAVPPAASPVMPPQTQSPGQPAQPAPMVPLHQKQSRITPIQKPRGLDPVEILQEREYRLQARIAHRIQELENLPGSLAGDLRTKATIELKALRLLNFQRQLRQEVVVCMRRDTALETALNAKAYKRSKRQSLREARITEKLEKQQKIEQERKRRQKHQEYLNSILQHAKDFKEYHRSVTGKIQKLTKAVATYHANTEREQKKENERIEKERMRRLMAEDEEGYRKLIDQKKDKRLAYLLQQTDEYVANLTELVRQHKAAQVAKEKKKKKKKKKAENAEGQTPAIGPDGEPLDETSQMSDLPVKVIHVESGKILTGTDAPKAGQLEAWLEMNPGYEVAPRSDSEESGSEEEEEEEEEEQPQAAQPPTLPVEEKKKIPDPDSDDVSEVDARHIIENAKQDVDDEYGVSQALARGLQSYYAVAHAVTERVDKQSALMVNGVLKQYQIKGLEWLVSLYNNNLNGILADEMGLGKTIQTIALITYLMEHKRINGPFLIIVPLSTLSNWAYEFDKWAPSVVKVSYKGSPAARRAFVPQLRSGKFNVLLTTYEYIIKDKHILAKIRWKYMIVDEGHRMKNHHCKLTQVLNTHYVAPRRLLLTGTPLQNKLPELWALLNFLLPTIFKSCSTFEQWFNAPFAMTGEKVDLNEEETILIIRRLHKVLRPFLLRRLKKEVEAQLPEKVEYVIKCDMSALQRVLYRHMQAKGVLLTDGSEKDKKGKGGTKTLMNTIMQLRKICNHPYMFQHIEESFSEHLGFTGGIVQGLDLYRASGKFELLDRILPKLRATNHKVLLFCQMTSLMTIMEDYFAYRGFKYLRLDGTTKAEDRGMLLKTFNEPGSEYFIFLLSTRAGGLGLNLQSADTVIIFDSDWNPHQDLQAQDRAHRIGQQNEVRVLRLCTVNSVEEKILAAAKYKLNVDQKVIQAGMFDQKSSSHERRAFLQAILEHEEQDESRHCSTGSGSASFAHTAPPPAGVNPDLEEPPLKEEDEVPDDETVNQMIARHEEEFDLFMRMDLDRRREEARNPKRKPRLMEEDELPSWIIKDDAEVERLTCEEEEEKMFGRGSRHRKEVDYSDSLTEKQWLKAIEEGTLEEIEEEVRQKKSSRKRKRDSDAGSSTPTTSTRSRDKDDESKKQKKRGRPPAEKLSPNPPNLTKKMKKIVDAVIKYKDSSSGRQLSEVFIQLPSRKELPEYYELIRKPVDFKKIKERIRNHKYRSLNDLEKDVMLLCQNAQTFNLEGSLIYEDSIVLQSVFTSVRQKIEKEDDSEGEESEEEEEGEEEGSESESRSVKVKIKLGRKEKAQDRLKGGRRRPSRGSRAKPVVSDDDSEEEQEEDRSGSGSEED

IC50 (BRM) [nM] | BRM Max % Inhibition (BRM) [%] | IC50 (BRG-1) [nM] | BRG1 Max % Inhibition (BRG-1) [%] | Structure (SMILES) | growth inhibition of uveal melanoma cells ([1]; 0 to 10 micromolar, 3 days) | onset of inhibition [1] | sensitivity of cell lines to growth inhibition (GI50) [2]
 |  |  |  | CSCC[C@H](NC(=O)c1ccc(N)cc1)C(=O)Nc1nc(-c2cccc(-c3ccncc3)c2)cs1 [Compound 87, (S)-4-amino-N-(4-(methylthio)-1-oxo-1-((4-(3-(pyridin-4-yl)phenyl)thiazol-2-yl)amino)butan-2-yl)benzamide] | comparable growth inhibition of uveal melanoma cells as the clinical PKC and MEK inhibitors | faster onset of inhibition than the clinical PKC and MEK inhibitors | more sensitive to BRG1/BRM inhibition than the other tested cell lines
100 to 1000 | >90 | 100 to 1000 | >90 | Cn1ncc2ccc(-c3csc(NC(=O)CNC(=O)c4ccc(N)cc4)n3)cc21 [Compound 228, 4-amino-N-[2-[[4-(1-methylindazol-6-yl)thiazol-2-yl]amino]-2-oxo-ethyl]benzamide] |  |  | 
100 to 1000 | >95 | 100 to 1000 | >95 | CC(C)(O)Cn1ccc(-c2cccc(-c3csc(NC(=O)CNC(=O)c4ccc(N)cc4)n3)c2)n1 [Compound 229, 4-amino-N-[2-[[4-[3-[1-(2-hydroxy-2-methyl-propyl)pyrazol-3-yl]phenyl]thiazol-2-yl]amino]-2-oxo-ethyl]benzamide] |  |  | 
100 to 1000 | >95 | 100 to 1000 | >90 | Nc1ccc(C(=O)NCC(=O)Nc2nc(-c3cccc(COC4CCOCC4)c3)cs2)cc1 [Compound 230, 4-amino-N-[2-oxo-2-[[4-[3-(tetrahydropyran-4-yloxymethyl)phenyl]thiazol-2-yl]amino]ethyl]benzamide] |  |  | 
100 to 1000 | >80 | 100 to 1000 | >80 | COC(C)(C)Cn1ccc(-c2cccc(-c3csc(NC(=O)CNC(=O)c4ccc(N)cc4)n3)c2)n1 [Compound 232, 4-amino-N-[2-[[4-[3-[1-(2-methoxy-2-methyl-propyl)pyrazol-3-yl]phenyl]thiazol-2-yl]amino]-2-oxo-ethyl]benzamide] |  |  | 
100 to 1000 | >90 | 100 to 1000 | >80 | CN(C)CC[C@H](NC(=O)c1ccc(N)cc1)C(=O)Nc1nc(-c2cccc(-c3ccncc3)c2)cs1 [Compound 233, (S)-4-amino-N-(4-(dimethylamino)-1-oxo-1-((4-(3-(pyridin-4-yl)phenyl)thiazol-2-yl)amino)butan-2-yl)benzamide] |  |  | 
100 to 1000 | >90 | 100 to 1000 | >90 | Nc1ccc(C(=O)NCC(=O)Nc2nc(-c3cccc(N4CCC[C@@H](O)C4)c3)cs2)cc1 [Compound 234, 4-amino-N-[2-[[4-[3-[(3R)-3-hydroxy-1-piperidyl]phenyl]thiazol-2-yl]amino]-2-oxo-ethyl]benzamide] |  |  | 
100 to 1000 | >90 | 100 to 1000 | >70 | CC(OC1CCOCC1)c1cccc(-c2csc(NC(=O)CNC(=O)c3ccc(N)cc3)n2)c1 (stereo not shown) [Compound 235, 4-amino-N-[2-oxo-2-[[4-[3-(1-tetrahydropyran-4-yloxyethyl)phenyl]thiazol-2-yl]amino]ethyl]benzamide] |  |  | 
100 to 1000 | >90 | 100 to 1000 | >90 | Nc1ccc(C(=O)NCC(=O)Nc2nc(-c3cccc(N4CCC[C@H](O)C4)c3)cs2)cc1 [Compound 236, 4-amino-N-[2-[[4-[3-[(3S)-3-hydroxy-1-piperidyl]phenyl]thiazol-2-yl]amino]-2-oxo-ethyl]benzamide] |  |  | 
100 to 1000 | >90 | 100 to 1000 | >90 | CSCC[C@H](NC(=O)c1ccc(N)cc1)C(=O)Nc1nc(-c2cccc(-c3cccc(CN)c3)c2)cs1 [Compound 237, 4-amino-N-[(1S)-1-[[4-[3-[3-(aminomethyl)phenyl]phenyl]thiazol-2-yl]carbamoyl]-3-methylsulfanyl-propyl]benzamide] |  |  | 
100 to 1000 | >90 | 100 to 1000 | >95 | CO[C@H]1CCCN(c2cccc(-c3csc(NC(=O)CNC(=O)c4ccc(N)cc4)n3)c2)C1 [Compound 238, 4-amino-N-[2-[[4-[3-[(3S)-3-methoxy-1-piperidyl]phenyl]thiazol-2-yl]amino]-2-oxo-ethyl]benzamide] |  |  | 
100 to 1000 | >90 | 100 to 1000 | >80 | Nc1ccc(C(=O)NCC(=O)Nc2nc(-c3cccc(C4CCCCO4)c3)cs2)cc1 (stereo not shown) [Compound 239, 4-amino-N-[2-oxo-2-[[4-(3-tetrahydropyran-2-ylphenyl)thiazol-2-yl]amino]ethyl]benzamide] |  |  | 
100 to 1000 | >80 | 100 to 1000 | >80 | Nc1ccc(C(=O)NCC(=O)Nc2nc(-c3ccc4cncnc4c3)cs2)cc1 [Compound 240, 4-amino-N-[2-oxo-2-[(4-quinazolin-7-ylthiazol-2-yl)amino]ethyl]benzamide] |  |  | 
100 to 1000 | >90 | 100 to 1000 | >90 | CC(C)(N)Cn1ccc(-c2cccc(-c3csc(NC(=O)CNC(=O)c4ccc(N)cc4)n3)c2)n1 [Compound 241, 4-amino-N-[2-[[4-[3-[1-(2-amino-2-methyl-propyl)pyrazol-3-yl]phenyl]thiazol-2-yl]amino]-2-oxo-ethyl]benzamide] |  |  | 

— patent US11497752B2, “Compounds and uses thereof” (Foghorn Therapeutics Inc., priority 2018, dated 2022)
